According to patent publication US20170037086A1, “PEPTIDOMIMETIC MACROCYCLES WITH PTH ACTIVITY” (AILERON THERAPEUTICS, INC., priority 2014, published 2017):
Values joined by “and” are separate entries in the source; they are usually repeats but may differ in a detail not shown here. Identical values can stand only once. Blank lines part the entries; values can stand above or below the molecule they belong to. Positions of bridges follow the written chain, without caps; N, C: chain ends. Non-standard residues stand in square brackets, D forms with d. hArg = N=C(N)NCCCC[C@H](N)C(=O)O; S5 = C=CCCC[C@](C)(N)C(=O)O

How the values were obtained:
[1] = biological target: PTH receptor type 2 (UniProt P49190 25-550, limits assumed); experiment: cell-based or functional assay
Sequence of PTH receptor type 2 (P49190 25-550 limits assumed): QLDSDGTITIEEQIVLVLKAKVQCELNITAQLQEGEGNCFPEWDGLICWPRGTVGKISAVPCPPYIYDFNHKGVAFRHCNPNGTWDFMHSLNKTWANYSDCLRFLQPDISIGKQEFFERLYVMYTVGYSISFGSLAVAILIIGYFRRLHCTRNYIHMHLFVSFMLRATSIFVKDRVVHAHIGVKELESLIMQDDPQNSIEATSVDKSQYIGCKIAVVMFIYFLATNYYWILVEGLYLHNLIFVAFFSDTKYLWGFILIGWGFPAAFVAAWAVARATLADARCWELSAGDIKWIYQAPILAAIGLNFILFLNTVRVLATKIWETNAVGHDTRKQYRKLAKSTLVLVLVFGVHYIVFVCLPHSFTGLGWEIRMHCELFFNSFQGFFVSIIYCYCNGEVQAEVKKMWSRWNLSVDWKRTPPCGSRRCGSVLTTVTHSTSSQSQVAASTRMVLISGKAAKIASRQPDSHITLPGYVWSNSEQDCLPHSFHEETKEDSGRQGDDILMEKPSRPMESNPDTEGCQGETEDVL

[2] = system: PTH (1-34) induced hypercalcemia; experiment: TPTx rat model of PTH (1-34) induced hypercalcemia; format: in vivo; conditions: for Ionized calcium, Avg. / Total calcium, Avg. / Ionized calcium, individual animals / Total calcium, individual animals: Group 2 Vehicle/PTH; for Ionized calcium, Avg. / Total calcium, Avg.: TPTx rats, PTH 1.25 μg/kg/h IV infusion
Method: PTH Antagonist in a TPTx Rat Model of PTH (1-34) Induced Hypercalcemia
Experiments were conducted assess the effect of a PTH antagonist SP#63 in a thyroparathyroidectomized (TPTx) rat model of PTH (1-34) induced hypercalcemia. Thyroid hormone was given as supportive therapy prior to start of PTH infusion.
SP#63 or the vehicle for SP#63 was administered as an intravenous (IV) bolus in PTH infused thyroparathyroidectomized (TPTx) Sprague-Dawley rats. SP#63 was administered at 0.925 mg/kg and 1.850 mg/kg, 1 to 3 min before the initiation of the IV infusion. PTH (administered at 1.25 μg/kg/h) or the vehicle for PTH were infused via a femoral catheter over a period of 6 hours at a rate of 1 mL/kg/h. Total and ionized calcium were measured from blood samples collected at 0, 2, 4 and 6 hours during the IV infusion.

[3] = biological target: T1, human PTH1 receptor (human, UniProt Q03431 27-593); experiment: cell-based or functional assay
T1 sequence (looked up): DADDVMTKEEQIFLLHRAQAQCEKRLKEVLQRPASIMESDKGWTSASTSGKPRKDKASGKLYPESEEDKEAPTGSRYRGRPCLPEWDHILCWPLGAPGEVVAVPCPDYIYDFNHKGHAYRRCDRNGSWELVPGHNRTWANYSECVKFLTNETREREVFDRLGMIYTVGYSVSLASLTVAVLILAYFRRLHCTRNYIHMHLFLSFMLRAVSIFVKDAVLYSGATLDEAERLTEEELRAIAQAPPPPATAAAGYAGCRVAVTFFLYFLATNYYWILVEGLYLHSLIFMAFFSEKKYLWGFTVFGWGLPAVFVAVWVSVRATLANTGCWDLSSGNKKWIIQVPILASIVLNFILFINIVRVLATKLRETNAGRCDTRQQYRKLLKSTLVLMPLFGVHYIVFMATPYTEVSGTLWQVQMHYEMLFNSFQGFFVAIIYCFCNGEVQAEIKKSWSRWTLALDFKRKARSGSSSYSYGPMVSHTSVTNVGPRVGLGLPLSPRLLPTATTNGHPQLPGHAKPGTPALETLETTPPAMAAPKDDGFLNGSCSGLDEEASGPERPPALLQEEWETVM

calcium flux IC50 [1]: > 10000 nM
Molecule: BIM-44002 (peptide)

Molecule: PTH (1-34)
Ionized calcium, Avg. ([2]; 2 h): 4.13 mg/dL
Total calcium, Avg. ([2]; 2 h): 8.28 mg/dL
Ionized calcium, Avg. ([2]; 4 h): 4.62 mg/dL
Total calcium, Avg. ([2]; 4 h): 9.14 mg/dL
Ionized calcium, Avg. ([2]; 6 h): 4.99 mg/dL
Total calcium, Avg. ([2]; 6 h): 9.92 mg/dL
Ionized calcium, Avg. ([2]; time 0): 3.36 mg/dL
Total calcium, Avg. ([2]; time 0): 7.22 mg/dL
Ionized calcium, individual animals ([2]; animals 2001-2005, 2 h): 4.08 mg/dL and 3.27 mg/dL and 4.85 mg/dL and 4.68 mg/dL and 3.75 mg/dL
Total calcium, individual animals ([2]; animals 2001-2005, 2 h): 8.2 mg/dL and 6.6 mg/dL and 9.8 mg/dL and 9.3 mg/dL and 7.5 mg/dL
Ionized calcium, individual animals ([2]; animals 2001-2005, 4 h): 4.58 mg/dL and 3.88 mg/dL and 5.29 mg/dL and 5.02 mg/dL and 4.34 mg/dL
Total calcium, individual animals ([2]; animals 2001-2005, 4 h): 9.1 mg/dL and 7.6 mg/dL and 10.5 mg/dL and 9.8 mg/dL and 8.7 mg/dL
Ionized calcium, individual animals ([2]; animals 2001-2005, 6 h): 5.06 mg/dL and 4.15 mg/dL and 5.71 mg/dL and 5.23 mg/dL and 4.79 mg/dL
Total calcium, individual animals ([2]; animals 2001-2005, 6 h): 10.1 mg/dL (2×) and 8.3 mg/dL and 11.4 mg/dL and 9.7 mg/dL
Ionized calcium, individual animals ([2]; animals 2001-2005, time 0): 3.21 mg/dL and 3.07 mg/dL and 4.01 mg/dL and 3.16 mg/dL
Total calcium, individual animals ([2]; animals 2001-2005, time 0): 6.7 mg/dL and 6.4 mg/dL and 8.4 mg/dL and 8.3 mg/dL and 6.3 mg/dL
ionized calcium at 6 h ([2]; PTH infusion 1.25 μg/kg/h with vehicle for SP#63, 3.36 mg/dL at 0 h): 4.99 mg/dL
total calcium at 6 h ([2]; PTH infusion 1.25 μg/kg/h with vehicle for SP#63, 7.22 mg/dL at 0 h): 9.92 mg/dL

calcium flux, EC80 [1]: 4.1 nM
Molecule: TIP-39 (from UniProt Q96A98 62-100) (ligand)

IC50, SaOS-2 cAMP with PTH[1-84] or PTHrP[1-34] as ligand [3]: < 10 nM
Molecule: H-LL[S5]QRA[S5]WIQDLRRRFW[S5]HHL[S5]AEIHTA-NH2 (staple 18-22, 3-7) [SP# 228]

IC50, SaOS-2 cAMP with PTH[1-84] or PTHrP[1-34] as ligand [3]: < 10 nM
Molecule: H-LL[S5]QRA[S5]WIQD[S5]RRR[S5]WLHHLIAEIHTA-NH2 (staple 12-16, 3-7) [SP# 232]

IC50, SaOS-2 cAMP with PTH[1-84] or PTHrP[1-34] as ligand [3]: < 10 nM
Molecule: H-LLHQRA[S5]WIQ[S5]LRRR[S5]WLR[S5]KLQDVHNF-NH2 (staple 7-11, 16-20) [SP# 246]

IC50, SaOS-2 cAMP with PTH[1-84] or PTHrP[1-34] as ligand [3]: < 10 nM
Molecule: H-LLH[S5]RAK[S5]IQDLRRRFW[S5]HHL[S5]AEIHTA-NH2 (staple 18-22, 4-8) [SP# 226]

calcium flux IC50 [1]: < 10000 nM
Molecule: H-LLHQ[hArg]AK[S5]IQD[S5]RRR[S5]WLH[S5]LIAEIHTAEY-NH2 (staple 8-12, 16-20) [SP# 67]

IC50, SaOS-2 cAMP with PTH[1-84] or PTHrP[1-34] as ligand [3]: < 10 nM
Molecule: H-LLHQRA[S5]WIQ[S5]LRRREW[S5]RKK[S5]QDVHNF-NH2 (staple 7-11, 18-22) [SP# 245]

IC50, SaOS-2 cAMP with PTH[1-84] or PTHrP[1-34] as ligand [3]: < 10 nM
Molecule: H-LLHQRAKWIQD[S5]RRR[S5]WLRKKLQDVHNF-NH2 (staple 12-16) [SP# 247]
